According to patent US11459339B2, “Biaryl derivative, preparation method thereof and pharmaceutical application thereof” (Abbisko Therapeutics Co., Ltd., priority 2018, dated 2022):
pEC50, pIC50: −log10 of the molar value.

What was measured:
[1] = biological target: interaction between PD-1 and PD-L1 expressed on cell surfaces (Homo sapiens (Human), UniProt Q9NZQ7); experiment: Jurkat reporter gene cellular assay (Jurkat/NF-κB-luc/PD1 cells cocultured with Raji-PD-L1 cells, OKT-3 stimulation); type: cell-based; settings: NF-κB-luc reporter activation fold, 6 hrs; read-out: Cell Activity EC50
Sequence of interaction between PD-1 and PD-L1 expressed on cell surfaces (Q9NZQ7 19-290): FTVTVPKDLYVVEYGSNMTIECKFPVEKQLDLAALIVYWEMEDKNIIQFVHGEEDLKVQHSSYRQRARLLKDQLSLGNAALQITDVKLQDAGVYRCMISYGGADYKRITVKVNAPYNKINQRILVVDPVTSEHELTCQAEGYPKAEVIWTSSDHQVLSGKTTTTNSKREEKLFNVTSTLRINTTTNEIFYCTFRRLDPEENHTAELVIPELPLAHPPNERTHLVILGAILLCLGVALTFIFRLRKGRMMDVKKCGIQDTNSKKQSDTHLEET
Description: B. Jurkat Reporter Gene Cellular Assay
The effect of compounds of the examples of the present invention and positive compounds on the interaction between PD-1 and PD-L1 expressed on cell surfaces, and the related influence on T cell functions, were determined by a Jurkat reporter gene cellular assay.
Briefly, the reporter gene plasmid of NF-κB-luc and the plasmid of human PD-1 were transfected into Jurkat cells to establish a stably transfected cell line capable of stably expressing both PD-1 and NF-κB-Luc reporter genes; the expression level of PD-1 on the cell surface was confirmed by flow cytometry: and the expression of the reporter gene was confirmed via the response of the reporter gene stimulated by OKT-3 and Raiji cells.
In addition, the plasmid of human PD-L1 was transfected into Raji cells to obtain a cell line capable of stably expressing PD-L1. Jurkat/NF-κB-luc/PD1 cells and Raji-PD-L1 cells were then cocultured and stimulated with OKT-3. On this basis, the compounds were added, and the enhancement of the signal pathway of T cell activation by the inhibitory effect of the compounds on the interaction between PD-1 and PD-L1 was evaluated by readings of reporter gene responses. The specific experimental process was as follows:
2. 20 μL of Raji-PD-L1 cell suspension was added to each well with 5*10^4 cells for each well, and was incubated in an incubator for 20 min;
3. 20 μL of Jurkat/NF-κb-luc/PD-1 cell suspension was added to each well with 5*10^4 cells for each well, and well mixed, and 6 hrs later, Bright-glo (Promega, E2620) was applied and plates were read on Envision;
4. the reading of each well treated with the compound was compared with the reading of each well treated with DMSO to obtain the activation fold of the compound; and
5. EC50 values of compounds and positive compounds of the examples of the present invention were determined by non-linear regression analysis of activation folds at different compound concentrations.

[2] = biological target: interaction between PD-1 and PD-L1 (Homo sapiens (Human), UniProt Q9NZQ7); experiment: PD1-PDL1 HTRF binding activity test (Cisbio PD-1/PD-L1 binding assay kit); settings: read-out: PD1-PDL1 HTRF Binding Activity IC50
Sequence of interaction between PD-1 and PD-L1 (Q9NZQ7 19-238): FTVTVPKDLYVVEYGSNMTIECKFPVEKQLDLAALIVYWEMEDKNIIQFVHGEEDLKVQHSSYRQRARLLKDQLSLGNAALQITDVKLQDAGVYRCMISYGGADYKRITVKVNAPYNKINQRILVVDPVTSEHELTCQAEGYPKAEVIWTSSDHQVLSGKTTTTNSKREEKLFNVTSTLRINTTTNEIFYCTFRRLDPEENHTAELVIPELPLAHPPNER
Description: A. PD1-PDL1 HTRF Binding Activity Test
The effect of compounds and positive compounds of the examples of the present invention on the interaction between PD-1 and PD-L1 was determined by the PD-1/PD-L1 binding assay kit from Cisbio (#64ICP01PEG or 64ICP01PEH). The detailed experimental process was as follows:
1. Pre-diluted compound solution, 4 μL of Tag1-PD-L1 and 4 μL of Tag2-PD1 were added to each well of a 384-well plate;
3. After incubated for 2 hrs at room temperature or overnight at 4° C., plates were read on Envision of Pelkin Elmer; and readings at 665 nm and 620 nm were recorded, and the ratio of the two readings was taken as a reading for each well;
4. The reading of each well after compound treatment was compared with the reading of DMSO treated wells to obtain the percent inhibition of the compound; and
5. IC50 values of compounds and positive compounds of the examples of the present invention were determined by non-linear regression analysis of percent inhibition at different compound concentrations.

With COc1cc(C(=O)Nc2cccc(-c3cccc(NC(=O)c4cc(OC)c(CN5CC[C@@H](OC)C5)cn4)c3C)c2C)ncc1CN1CC[C@@H](OC)C1 [Example 50, N,N'-(2,2′-dimethyl-[1,1′-biphenyl]-3,3′-diyl)bis(4-methoxy-5-(((R)-3-methoxypyrrolidin-1-yl)methyl)picolinamide)] the pEC50 [1] was 6.64 and the pIC50 [2] was 9.48.
COc1cc(C(=O)Nc2cccc(-c3cccc(NC(=O)c4cc(OC)c(CN5CC(OC)C5)cn4)c3C)c2C)ncc1CN1CC(OC)C1 [Example 51, N,N'-(2,2′-dimethyl-[1,1′-biphenyl]-3,3′-diyl)bis(4-methoxy-5-((3-methoxyazetidin-1-yl)methyl)picolinamide)] gave a pEC50 [1] of 6.54 and a pIC50 [2] of 9.66.
Work on COc1cc(C(=O)Nc2cccc(-c3cccc(NC(=O)c4cc(OC)c(CN5CC(C)(OC)C5)cn4)c3C)c2C)ncc1CN1CC(C)(OC)C1 [Example 52, N,N'-(2,2′-dimethyl-[1,1′-biphenyl]-3,3′-diyl)bis(4-methoxy-5-((3-methoxy-3-methylazetidin-1-yl)methyl)picolinamide)] yielded a pEC50 [1] of 6.29 and a pIC50 [2] of 9.40.
In the case of COc1cc(C(=O)Nc2cccc(-c3cccc(NC(=O)c4cc(OC)c(CN[C@H]5C[C@@H](O)C5)cn4)c3C)c2C)ncc1CN[C@H]1C[C@@H](O)C1 [Example 53, N,N'-(2,2′-dimethyl-[1,1′-biphenyl]-3,3′-diyl)bis(5-((((1s,3s)-3-hydroxycyclobutyl)amino)methyl)-4-methoxypicolinamide)], the pEC50 [1] was 7.28 and the pIC50 [2] was 9.82.
With COc1cc(C(=O)Nc2cccc(-c3cccc(NC(=O)c4cc(OC)c(CNC5COC5)cn4)c3C)c2C)ncc1CNC1COC1 [Example 54, N,N'-(2,2′-dimethyl-[1,1′-biphenyl]-3,3′-diyl)bis(4-methoxy-5-((oxetan-3-ylamino)methyl)picolinamide)] the pEC50 [1] was 5.32 and the pIC50 [2] was 9.68.
With COc1cc(C(=O)Nc2cccc(-c3cccc(NC(=O)c4cc(OC)c(CN[C@H]5CCOC5)cn4)c3C)c2C)ncc1CN[C@H]1CCOC1 [Example 55, N,N'-(2,2′-dimethyl-[1,1′-biphenyl]-3,3′-diyl)bis(4-methoxy-5-((((S)-tetrahydrofuran-3-yl)amino)methyl)picolinamide)] the pEC50 [1] was 7.09 and the pIC50 [2] was 9.40.
COc1cc(C(=O)Nc2cccc(-c3cccc(NC(=O)c4cc(OC)c(CN[C@@H]5CCOC5)cn4)c3C)c2C)ncc1CN[C@@H]1CCOC1 [Example 56, N,N'-(2,2′-dimethyl-[1,1′-biphenyl]-3,3′-diyl)bis(4-methoxy-5-((((R)-tetrahydrofuran-3-yl)amino)methyl)picolinamide)] showed a pEC50 [1] of 6.76 and a pIC50 [2] of 9.19.
In the case of COc1cc(C(=O)Nc2cccc(-c3cccc(NC(=O)c4cc(OC)c(CN5CC6(COC6)C5)cn4)c3C)c2C)ncc1CN1CC2(COC2)C1 [Example 58, N,N'-(2,2′-dimethyl-[1,1′-biphenyl]-3,3′-diyl)bis(5-((2-oxa-6-azaspiro[3.3]heptan-6-yl)methyl)-4-methoxypicolinamide)], the pEC50 [1] was 6.20 and the pIC50 [2] was 9.66.
For COc1cc(C(=O)Nc2cccc(-c3cccc(NC(=O)c4cc(OC)c(CNC[C@@H](O)CC(=O)O)cn4)c3C)c2C)ncc1CNC[C@@H](O)CC(=O)O [Example 59], the pEC50 [1] was 7.15 and the pIC50 [2] was 9.51.
COc1cc(C(=O)Nc2cccc(-c3cccc(NC(=O)c4cc(OC)c(CN[C@H]5C[C@@H](C(=O)O)C5)cn4)c3C)c2C)ncc1CN[C@H]1C[C@@H](C(=O)O)C1 [Example 60, (1s,1′s,3s,3′s)-3,3′-((((((2,2′-dimethyl-[1,1′-biphenyl]-3,3′-diyl)bis(azanediyl))bis(carbonyl))bis(4-methoxypyridine-6,3-diyl))bis(methylene))bis(azanediyl))bis (cyclobutane-1-carboxylic acid)] showed a pEC50 [1] of 6.24 and a pIC50 [2] of 10.47.
For COc1cc(C(=O)Nc2cccc(-c3cccc(NC(=O)c4cc(OC)c(CN5CCC[C@H]5C(=O)O)cn4)c3C)c2C)ncc1CN1CCC[C@H]1C(=O)O [Example 61, (2′S)-(((((2,2′-dimethyl-[1,1′-biphenyl]-3,3′-diyl)bis(azanediyl))bis(carbonyl))bis(4-methoxypyridine-6,3-diyl))bis(methylene))di-L-proline], the pEC50 [1] was 6.50 and the pIC50 [2] was 9.74.
With COc1cc(C(=O)Nc2cccc(-c3cccc(NC(=O)c4cc(OC)c(CN5C[C@H](O)C[C@H]5C(=O)O)cn4)c3C)c2C)ncc1CN1C[C@H](O)C[C@H]1C(=O)O [Example 62, (2S,2′S,4R,4′R)-1,1′-(((((2,2′-dimethyl-[1,1′-biphenyl]-3,3′-diyl)bis(azanediyl))bis(carbonyl))bis (4-methoxypyridine-6,3-diyl))bis (methylene))bis(4-hydroxypyrrolidine-2-carboxylic acid)] the pEC50 [1] was 6.19 and the pIC50 [2] was 9.60.
For COc1cc(C(=O)Nc2cccc(-c3cccc(NC(=O)c4cc(OC)c(CN5CCOC[C@H]5C(=O)O)cn4)c3C)c2C)ncc1CN1CCOC[C@H]1C(=O)O [Example 63, (3S,3′S)-4,4′(((((2,2′-dimethyl-[1,1′-biphenyl]-3-3′-diyl)bis(azanediyl))bis (carbonyl))bis(4-methoxypyridine-6,3-diyl))bis(methylene))bis(morpholine-3-carboxylic acid)], the pEC50 [1] was 5.34 and the pIC50 [2] was 9.60.
In the case of COC(=O)CNCc1cnc(C(=O)Nc2cccc(-c3cccc(NC(=O)c4cc(OC)c(CNCC(=O)OC)cn4)c3C)c2C)cc1OC [Example 66], the pEC50 [1] was 6.16 and the pIC50 [2] was 9.19.
COc1cc(C(=O)Nc2cccc(-c3cccc(NC(=O)c4cc(OC)c(CNCC(=O)O)cn4)c3C)c2C)ncc1CNCC(=O)O [Example 67] showed a pEC50 [1] of 6.46 and a pIC50 [2] of 9.29.
COc1cc(C(=O)Nc2cccc(-c3cccc(NC(=O)c4cc(OC)c(CN[C@H]5CCOC5=O)cn4)c3C)c2C)ncc1CN[C@H]1CCOC1=O [Example 68] showed a pEC50 [1] of 6.58 and a pIC50 [2] of 9.51.
Molecule COc1cc(C(=O)Nc2cccc(-c3cccc(NC(=O)c4cc(OC)c(CN[C@@H](CCO)C(=O)O)cn4)c3C)c2C)ncc1CN[C@@H](CCO)C(=O)O [Example 69] has a pEC50 [1] of 6.98 and a pIC50 [2] of 9.41.
COc1cc(C(=O)Nc2cccc(-c3cccc(NC(=O)c4cc(OC)c(CN[C@@H]5CCOC5=O)cn4)c3C)c2C)ncc1CN[C@@H]1CCOC1=O [Example 70, N,N'-(2,2′-dimethyl-[1,1′-biphenyl]-3,3′-diyl)bis(4-methoxy-5-((((R)-2-oxotetrahydrofuran-3-yl)amino)methyl)picolinamide)] gave a pEC50 [1] of 5.66 and a pIC50 [2] of 9.27.
COc1cc(C(=O)Nc2cccc(-c3cccc(NC(=O)c4cc(OC)c(CN[C@H](CCO)C(=O)O)cn4)c3C)c2C)ncc1CN[C@H](CCO)C(=O)O [Example 71] was tested, and the pEC50 [1] was 6.12 and the pIC50 [2] was 9.48.
With COc1cc(C(=O)Nc2cccc(-c3cccc(NC(=O)c4cc(OC)c(CN[C@@H]5COC(=O)C5)cn4)c3C)c2C)ncc1CN[C@@H]1COC(=O)C1 [Example 72, N,N'-(2,2′-dimethyl-[1,1′-biphenyl]-3,3′-diyl)bis(4-methoxy-5-((((S)-5-oxotetrahydrofuran-3-yl)amino)methyl)picolinamide)] the pEC50 [1] was 5.81 and the pIC50 [2] was 9.32.
COc1cc(C(=O)Nc2cccc(-c3cccc(NC(=O)c4cc(OC)c(CN[C@H](CO)CC(=O)O)cn4)c3C)c2C)ncc1CN[C@H](CO)CC(=O)O [Example 73, (3S,3′S)-3,3′-((((((2,2′-dimethyl-[1,1′-biphenyl]-3,3′-diyl)bis(azanediyl))bis(carbonyl))bis (4-methoxypyridine-6,3-diyl))bis (methylene))bis(azanediyl))bis(4-hydroxybutanoic acid)] gave a pEC50 [1] of 6.09 and a pIC50 [2] of 9.54.
With COc1cc(C(=O)Nc2cccc(-c3cccc(NC(=O)c4cc(OC)c(CN[C@H]5COC(=O)C5)cn4)c3C)c2C)ncc1CN[C@H]1COC(=O)C1 [Example 74] the pEC50 [1] was 6.52 and the pIC50 [2] was 9.85.
COc1cc(C(=O)Nc2cccc(-c3cccc(NC(=O)c4cc(OC)c(CN[C@@H](CO)CC(=O)O)cn4)c3C)c2C)ncc1CN[C@@H](CO)CC(=O)O [Example 75] was tested, and the pEC50 [1] was 6.11 and the pIC50 [2] was 9.44.
